Measured values published in ChEMBL document CHEMBL3763039, “Development and Characterization of Potent Cyclic Acyldepsipeptide Analogues with Increased Antimicrobial Activity” (2016).
Converted amounts (≈) assume the structure as drawn. Where a SMILES comes first, the peptide text is derived from it. Bridges are numbered along the chain shown (N, C = ends). [ ]: non-standard residue; d: D form. The star is where a group is joined. 2Nal = N[C@@H](Cc1ccc2ccccc2c1)C(=O)O; Pro(4R-Me) = C[C@H]1CN[C@H](C(=O)O)C1; Heptenoyl(2E) = CCCC/C=C/C(=O)*; Pip = O=C(O)[C@@H]1CCCCN1; Abu = CC[C@H](N)C(=O)O

Experiments:
Format in all cases: functional
Streptococcus pneumoniae = test: Antibacterial activity against Streptococcus pneumoniae D39 incubated for 16 to 18 hrs by broth microdilution method
Neisseria meningitidis [1] = test: Antibacterial activity against Neisseria meningitidis H44/76 incubated for 16 to 18 hrs by broth microdilution method
Escherichia coli [2] = test: Antibacterial activity against Escherichia coli MC4100 expressing lptD-4213 incubated for 16 to 18 hrs by broth microdilution method
Pseudomonas aeruginosa = test: Antibacterial activity against Pseudomonas aeruginosa PAO1 incubated for 16 to 18 hrs by broth microdilution method
Staphylococcus aureus [3] = test: Antibacterial activity against Staphylococcus aureus subsp. aureus Newman clinical isolate incubated for 16 to 18 hrs by broth microdilution method
Bacillus subtilis = test: Antibacterial activity against Bacillus subtilis PY79 incubated for 16 to 18 hrs by broth microdilution method
Enterococcus faecalis = test: Antibacterial activity against vancomycin-resistant Enterococcus faecalis V583 incubated for 16 to 18 hrs by broth microdilution method
Staphylococcus aureus [4] = test: Antibacterial activity against methicillin-resistant Staphylococcus aureus 1784A incubated for 16 to 18 hrs by broth microdilution method
Escherichia coli [5] = test: Antibacterial activity against Escherichia coli MC4100 incubated for 16 to 18 hrs by broth microdilution method
Listeria innocua = test: Antibacterial activity against Listeria innocua incubated for 16 to 18 hrs by broth microdilution method
Neisseria gonorrhoeae = test: Antibacterial activity against chloramphenicol-resistant Neisseria gonorrhoeae N.279 incubated for 16 to 18 hrs by broth microdilution method
Staphylococcus aureus [6] = test: Antibacterial activity against Staphylococcus aureus ATCC 29213 incubated for 16 to 18 hrs by broth microdilution method
Neisseria meningitidis [7] = test: Antibacterial activity against clpP deficient Neisseria meningitidis H44/76 incubated for 16 to 18 hrs by broth microdilution method

SMILES	MIC (Streptococcus pneumoniae)	MIC (Neisseria meningitidis [1])	MIC (Escherichia coli [2])	MIC (Pseudomonas aeruginosa)	MIC (Staphylococcus aureus [3])	MIC (Bacillus subtilis)	MIC (Enterococcus faecalis)	MIC (Staphylococcus aureus [4])	MIC (Escherichia coli [5])	MIC (Listeria innocua)	MIC (Neisseria gonorrhoeae)	MIC (Staphylococcus aureus [6])	MIC (Neisseria meningitidis [7])
C[C@@H]1C[C@H]2C(=O)O[C@@H](C)[C@H](NC(=O)[C@H](Cc3cc(F)cc(F)c3)NC(=O)/C=C/CCCCC(=O)O)C(=O)N3CCC[C@H]3C(=O)N3CCCC[C@H]3C(=O)N[C@@H](C)C(=O)N2C1	0.125 µg/mL (≈ 0.151 µM)	4 µg/mL (≈ 4.83 µM)	> 128 µg/mL	> 128 µg/mL	64 µg/mL (≈ 77.2 µM)	16 µg/mL (≈ 19.3 µM)	8 µg/mL (≈ 9.65 µM)	64 µg/mL (≈ 77.2 µM)	> 128 µg/mL	0.5 µg/mL (≈ 0.603 µM)	1 µg/mL (≈ 1.21 µM)	32 µg/mL (≈ 38.6 µM)	–
CCCC/C=C/C(=O)N[C@@H](Cc1cc(F)cc(F)c1)C(=O)N[C@@H]1C(=O)N2CCC[C@H]2C(=O)N2CCCC[C@H]2C(=O)N[C@@H](C)C(=O)N2C[C@H](C)C[C@H]2C(=O)O[C@H]1C	≤ 0.0625 µg/mL	0.0625 µg/mL (≈ 0.0796 µM)	> 128 µg/mL	> 128 µg/mL	0.0625 µg/mL (≈ 0.0796 µM)	≤ 0.0625 µg/mL	0.0078 µg/mL (≈ 0.00994 µM)	0.125 µg/mL (≈ 0.159 µM)	> 128 µg/mL	≤ 0.0625 µg/mL	0.0625 µg/mL (≈ 0.0796 µM)	0.0039 µg/mL (≈ 0.00497 µM)	> 128 µg/mL
C[C@@H]1C[C@H]2C(=O)O[C@@H](C)[C@H](NC(=O)[C@H](Cc3cc(F)cc(F)c3)NC(=O)/C=C/CC3CC3)C(=O)N3CCC[C@H]3C(=O)N3CCCC[C@H]3C(=O)N[C@@H](C)C(=O)N2C1	≤ 0.0625 µg/mL	0.25 µg/mL (≈ 0.319 µM)	> 128 µg/mL	> 128 µg/mL	0.0625 µg/mL (≈ 0.0798 µM)	≤ 0.0625 µg/mL	0.0078 µg/mL (≈ 0.00996 µM)	0.125 µg/mL (≈ 0.16 µM)	> 128 µg/mL	≤ 0.0625 µg/mL	0.125 µg/mL (≈ 0.16 µM)	0.0078 µg/mL (≈ 0.00996 µM)	–
C[C@@H]1C[C@H]2C(=O)O[C@@H](C)[C@H](NC(=O)[C@H](Cc3cc(F)cc(F)c3)NC(=O)/C=C/CC3CCCCC3)C(=O)N3CCC[C@H]3C(=O)N3CCCC[C@H]3C(=O)N[C@@H](C)C(=O)N2C1	0.0625 µg/mL (≈ 0.0758 µM)	0.0625 µg/mL (≈ 0.0758 µM)	> 128 µg/mL	> 128 µg/mL	0.0625 µg/mL (≈ 0.0758 µM)	≤ 0.0625 µg/mL	0.0078 µg/mL (≈ 0.00945 µM)	0.125 µg/mL (≈ 0.152 µM)	> 128 µg/mL	≤ 0.0625 µg/mL	0.125 µg/mL (≈ 0.152 µM)	0.0078 µg/mL (≈ 0.00945 µM)	> 128 µg/mL
CCCC/C=C/C(=O)N[C@@H](Cc1cc(F)cc(F)c1)C(=O)N[C@@H]1C(=O)N2CCC[C@H]2C(=O)N2CC[C@H](C)C[C@H]2C(=O)N[C@@H](C)C(=O)N2C[C@H](C)C[C@H]2C(=O)O[C@H]1C	≤ 0.0625 µg/mL	0.0625 µg/mL (≈ 0.0782 µM)	> 128 µg/mL	> 128 µg/mL	0.25 µg/mL (≈ 0.313 µM)	≤ 0.0625 µg/mL	0.0156 µg/mL (≈ 0.0195 µM)	8 µg/mL (≈ 10 µM)	> 128 µg/mL	≤ 0.0625 µg/mL	0.125 µg/mL (≈ 0.156 µM)	0.0078 µg/mL (≈ 0.00976 µM)	> 128 µg/mL
CCCC/C=C/C(=O)N[C@@H](Cc1cc(F)cc(F)c1)C(=O)N[C@@H]1C(=O)N2CCC[C@H]2C(=O)N2CCCC[C@H]2C(=O)N[C@@H](C)C(=O)N2CCC[C@H]2C(=O)O[C@H]1C	≤ 0.0625 µg/mL	0.25 µg/mL (≈ 0.324 µM)	> 128 µg/mL	> 128 µg/mL	0.0625 µg/mL (≈ 0.0811 µM)	≤ 0.0625 µg/mL	0.0078 µg/mL (≈ 0.0101 µM)	0.125 µg/mL (≈ 0.162 µM)	> 128 µg/mL	≤ 0.0625 µg/mL	0.125 µg/mL (≈ 0.162 µM)	0.0078 µg/mL (≈ 0.0101 µM)	–
CN[C@@H](CC(C)C)C(=O)N[C@H]1C(=O)N[C@@H](CC(N)=O)C(=O)N[C@H]2C(=O)N[C@H]3C(=O)N[C@H](C(=O)N[C@@H](C(=O)O)c4cc(O)cc(O)c4-c4cc3ccc4O)[C@H](O)c3ccc(c(Cl)c3)Oc3cc2cc(c3O[C@H]2O[C@@H](CO)[C@H](O)[C@@H](O)[C@@H]2O[C@@H]2C[C@@](C)(N)[C@@H](O)[C@@H](C)O2)Oc2ccc(cc2Cl)[C@H]1O	0.25 µg/mL (≈ 0.173 µM)	–	–	–	–	0.16 µg/mL (≈ 0.11 µM)	–	1.3 µg/mL (≈ 0.897 µM)	–	1 µg/mL (≈ 0.69 µM)	–	–	–
CCCC/C=C/C(=O)N[C@@H](Cc1ccc2ccccc2c1)C(=O)N[C@H]1COC(=O)[C@@H]2C[C@@H](C)CN2C(=O)[C@H](CC)NC(=O)[C@@H]2CCCCN2C(=O)[C@@H]2CCCN2C1=O ({Heptenoyl(2E)}-[2Nal]SP[Pip][Abu][Pro(4R-Me)]; ester 2-C)	2 µg/mL (≈ 2.5 µM)	32 µg/mL (≈ 40.1 µM)	> 128 µg/mL	> 128 µg/mL	> 128 µg/mL	128 µg/mL (≈ 160 µM)	32 µg/mL (≈ 40.1 µM)	> 128 µg/mL	> 128 µg/mL	0.5 µg/mL (≈ 0.626 µM)	> 128 µg/mL	> 128 µg/mL	–
